Measured values published in patent US8802734B2, “Method of treating or preventing pain” (Novaremed Limited, priority 2009, dated 2014).

Assays:
Balb/c mice [1] = test: Hot-Plate Test (antinociceptive effect), sub-chronic oral administration; type: in vivo; conditions: po daily for 16 days, 0.1 and 5 mg/Kg, hot plate on days 1, 8 and 15
Description: The objective of the study was to assess antinociceptive activity of tested items in the hot plate tests in mice, when administered sub-chronically. Measuring paw licking or jumping response time elapses following placement on heated surface (hot plate) was used to determine potential antinociceptive effect in mice.
A total of 42 Balb/c mice (12 weeks old) were utilized. The mice were approximately 25 g males at study initiation. The minimum and maximum weights of the group were within a range of ±10% of group mean weight.
Compounds 2 and 3 were tested and compared with Diclofenac® (Perigo). DMSO solutions were used. Six groups of mice (each having n=7 or n=8 mice) were tested, the last group receiving Diclofenac®.
All groups received the drugs daily po for 16 days. Hot plate experiments were performed on days; 1, 8 and 15.
The hot plate is maintained thermostatically at a temperature of 52° C. One hour before the administration of the drugs, mice are tested in the hot plate. At time 0 the mice are administered with the test compound and the response to the hot plate is measured again at different times: 60, 120, 180, 240, 300 and 360 min.
Results are expressed as: Delta from maximum response [baseline vs. maximum response]; Absolute measures over time; and Accumulated time.

Balb/c mice [2] = test: Formalin test; type: in vivo; conditions: i.p. 0.2, 1, 2.5 mg/kg, formalin 1% intraplantar 3 h or 4 h after the treatment, FIGS. 12a-12e
Protocol: Formalin test. The method used was similar to that described by Hunscaar and Hole (1987) “The formalin test in mice: dissociation between inflammatory and non-inflammatory pain,” Pain 30, pp. 103-104.
Five animals are used in each group and two to three hours after oral administration of the conjugates, 40 μl or 20 μl (rats or mice, respectively) of a 1% formalin (in 0.9% saline) solution is injected subcutaneously into the dorsal surface hind paw. The formalin induced typical flinching behaviour of the injected paw which was counted. The animals were returned to a glass chamber and the total time spent by the animal licking or biting the injected paw was measured. Formalin induced pain behaviour is biphasic. The duration of paw licking was determined during the following two time periods: 0-5 min (first-neurogenic phase) and 20-30 min (second-inflammatory phase) after formalin injection.
Part a. Male mice (Balb/c mice, 27 weeks old, not naïve), were divided in 4 groups (5 mice per group) and treated (0 min, i.p.) with the following formulations, respectively: […]
Part b. Male mice (Balb/c mice, 27 weeks old, not naïve), were divided in 4 groups (5 mice in groups) and treated (0 min, i.p.) with the following formulations, respectively: […]

Structure (SMILES)	effectiveness as pain relievers (hot plate test) (Balb/c mice [1])	anti-inflammatory properties (formalin test) (Balb/c mice [2])
O=C(CCc1ccccc1)NC(COCCO)Cc1ccc(O)cc1 (stereo not drawn) [Compound 3]	effective as pain relievers	–
CC(O)COCC(Cc1ccc(O)cc1)NC(=O)CCc1ccccc1 (stereo not drawn) [Compound 2]	effective as pain relievers	confirm the anti-inflammatory properties
